# Patent US5906930A, “Para-nitrobenzyl esterases with enhanced activity in aqueous and nonaqueous media” (California Institute of Technology, priority 1998, dated 1999)
# Changes are numbered by the printed parent chain.
# Tests used:
# Assay in all cases: Kinetic assays of purified pNB esterase (ester hydrolysis)
# Type in all cases: biochemical
# Conditions in all cases: 0.1M PIPES pH 7.0, 30° C.
# [1] = biological target: T1, Bacillus subtilis para-nitrobenzyl esterase variant 4-54B9 (3-10C4 substitutions + L334S and one further substitution), SEQ. ID. NO. 14 (Bacillus subtilis, UniProt P37967, H322R/K267R/L144M/L334S/M358V/Y370F); design: unit not given beside the values
# T1 sequence (P37967 1-489 K23L/S59P/K95Q/L144M/N150D/S230A/G242S/K246R/S251A/K267R/A291S/H322R/L334S/V343A/M358V/Y370F/K390E/L463V): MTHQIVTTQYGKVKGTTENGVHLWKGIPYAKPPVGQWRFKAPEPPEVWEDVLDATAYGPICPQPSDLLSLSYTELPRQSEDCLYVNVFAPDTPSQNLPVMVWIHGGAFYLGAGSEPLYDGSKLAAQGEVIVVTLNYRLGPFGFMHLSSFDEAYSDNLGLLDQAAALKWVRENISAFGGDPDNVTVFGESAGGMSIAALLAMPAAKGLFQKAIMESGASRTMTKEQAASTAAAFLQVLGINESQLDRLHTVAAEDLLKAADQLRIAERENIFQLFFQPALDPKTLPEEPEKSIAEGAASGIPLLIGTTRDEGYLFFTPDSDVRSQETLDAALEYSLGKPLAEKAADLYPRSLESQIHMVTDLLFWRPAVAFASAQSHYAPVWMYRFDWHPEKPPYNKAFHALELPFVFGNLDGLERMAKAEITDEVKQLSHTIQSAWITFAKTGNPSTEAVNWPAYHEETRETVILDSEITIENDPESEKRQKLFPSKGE
# Protocol: (§1) Bacteria expressing seven pNB esterases, 0-WT (SEQ. ID. NO. 2), 1-1H9, 2-19E10, 3-10C4, 4-38B9, 4-43E7, and 4-54B9, were grown in one liter cultures and the enzymes were purified. These purified enzymes were assayed for their ability to hydrolyze the different ester substrates in the presence of various concentrations of DMF. FIGS. 8a, b and c show the specific reaction rates on pNPA as a function of pNPA substrate concentration for this series of evolved variants from the four generations of mutagenesis and screening. […] The wild type enzyme outperforms 1-1H9 in purely aqueous buffer (FIG. 8a). The actual screening, however, was performed in the presence of DMF, and in 15 and 30% DMF, 1-1H9 has higher specific activity towards pNPA than wild type (FIGS. 8b and 8c). Similar trends are seen for the remaining variants assayed on this substrate. […] In 30% DMF, wild type drops still further relative to the pNB esterase variants. Variants 4-38B9 and 4-43E7, presumably by, virtue of having been screened in DMF for four rounds of mutagenesis, are the best performers in 30% DMF.
# (§2) DMF dramatically increases KM while also decreasing kcat. For the LCN substrates, the mutations accumulated during directed evolution mitigate the increased KM. The effects on kcat, however, are more prominent: kcat increases more than 9-fold from wild type to 4-54B9 in 15% DMF, while KM decreases by less than a factor of two on LCN-pNB. […] At substrate concentrations […], increased specific activity will result mainly from improvements in kcat. These improvements are obviously the most useful for enzymes intended to be used for transformations in high substrate concentrations.
# (§3) Kinetic assays were performed on three substrates: pNPA, LCN-pNP, and p-nitrobenzyl loracarbef nucleus (LCN-pNB). For pNPA and LCN-pNP substrates, final concentrations varying from 0.0625 mM to 16 mM and 0, 15, and 30% DMF in 0.1M PIPES (Sigma), pH 7.0 were combined with equal volumes of enzyme samples. These samples were mixed simultaneously in a 96 well plate and monitored with the 96 well plate reader. The absorbance values were recorded, linearly regressed, and then used for calculating kinetic parameters. For the LCN-pNB substrate, final concentrations varying from 0.0156 mM to 8.0 mM and 0, 15 and 30% DMF in PIPES, pH 7.0 were combined with enzyme samples in a quartz cuvette and were measured in a spectrophotometer at 289 nm. All assays were measured in triplicate.
# [2] = biological target: T2, Bacillus subtilis para-nitrobenzyl esterase (pNB esterase), wild type 0-WT, SEQ. ID. NO. 2 (Bacillus subtilis, UniProt P37967); design: unit not given beside the values
# T2 sequence (P37967 1-489 K23L/S59P/K95Q/N150D/S230A/G242S/K246R/S251A/A291S/V343A/K390E/L463V): T1 sequence (P37967 1-489 K23L/S59P/K95Q/L144M/N150D/S230A/G242S/K246R/S251A/K267R/A291S/H322R/L334S/V343A/M358V/Y370F/K390E/L463V) with M144L, R267K, R322H, S334L, V358M, F370Y
# Protocol: as §1, §2, §3
# [3] = biological target: T3, Bacillus subtilis para-nitrobenzyl esterase variant 4-43E7 (3-10C4 substitutions + L334V and one further substitution), SEQ. ID. NO. 12 (Bacillus subtilis, UniProt P37967, H322R/L144M/L334V/M358V/S94G/Y370F); design: unit not given beside the values
# T3 sequence (P37967 1-489 K23L/S59P/S94G/K95Q/L144M/N150D/S230A/G242S/K246R/S251A/A291S/H322R/L334V/V343A/M358V/Y370F/K390E/L463V): T1 sequence (P37967 1-489 K23L/S59P/K95Q/L144M/N150D/S230A/G242S/K246R/S251A/K267R/A291S/H322R/L334S/V343A/M358V/Y370F/K390E/L463V) with S94G, R267K, S334V
# Protocol: as §1, §2, §3
# [4] = biological target: T4, Bacillus subtilis para-nitrobenzyl esterase variant 2-19E10 (1-1H9 substitutions + M358V), SEQ. ID. NO. 6 (Bacillus subtilis, UniProt P37967, H322R/M358V/Y370F); design: unit not given beside the values
# T4 sequence (P37967 1-489 K23L/S59P/K95Q/N150D/S230A/G242S/K246R/S251A/A291S/H322R/V343A/M358V/Y370F/K390E/L463V): T1 sequence (P37967 1-489 K23L/S59P/K95Q/L144M/N150D/S230A/G242S/K246R/S251A/K267R/A291S/H322R/L334S/V343A/M358V/Y370F/K390E/L463V) with M144L, R267K, S334L
# Protocol: as §1, §2, §3
# [5] = biological target: T5, Bacillus subtilis para-nitrobenzyl esterase variant 4-38B9 (3-10C4 substitutions + I60V), SEQ. ID. NO. 10 (Bacillus subtilis, UniProt P37967, H322R/I60V/L144M/M358V/Y370F)
# T5 sequence (P37967 1-489 K23L/S59P/I60V/K95Q/L144M/N150D/S230A/G242S/K246R/S251A/A291S/H322R/V343A/M358V/Y370F/K390E/L463V): T1 sequence (P37967 1-489 K23L/S59P/K95Q/L144M/N150D/S230A/G242S/K246R/S251A/K267R/A291S/H322R/L334S/V343A/M358V/Y370F/K390E/L463V) with I60V, R267K, S334L
# Protocol: as §1, §2, §3
# [6] = biological target: T6, Bacillus subtilis para-nitrobenzyl esterase variant 3-10C4 (2-19E10 substitutions + L144M), SEQ. ID. NO. 8 (Bacillus subtilis, UniProt P37967, H322R/L144M/M358V/Y370F)
# T6 sequence (P37967 1-489 K23L/S59P/K95Q/L144M/N150D/S230A/G242S/K246R/S251A/A291S/H322R/V343A/M358V/Y370F/K390E/L463V): T1 sequence (P37967 1-489 K23L/S59P/K95Q/L144M/N150D/S230A/G242S/K246R/S251A/K267R/A291S/H322R/L334S/V343A/M358V/Y370F/K390E/L463V) with R267K, S334L
# Protocol: as §1, §2, §3
# [7] = biological target: T7, Bacillus subtilis para-nitrobenzyl esterase variant 1-1H9 (incl. Y370F), SEQ. ID. NO. 4 (Bacillus subtilis, UniProt P37967, H322R/Y370F)
# T7 sequence (P37967 1-489 K23L/S59P/K95Q/N150D/S230A/G242S/K246R/S251A/A291S/H322R/V343A/Y370F/K390E/L463V): T1 sequence (P37967 1-489 K23L/S59P/K95Q/L144M/N150D/S230A/G242S/K246R/S251A/K267R/A291S/H322R/L334S/V343A/M358V/Y370F/K390E/L463V) with M144L, R267K, S334L, V358M
# Protocol: Bacteria expressing seven pNB esterases, 0-WT (SEQ. ID. NO. 2), 1-1H9, 2-19E10, 3-10C4, 4-38B9, 4-43E7, and 4-54B9, were grown in one liter cultures and the enzymes were purified. These purified enzymes were assayed for their ability to hydrolyze the different ester substrates in the presence of various concentrations of DMF.
# The effects on kcat, however, are more prominent: kcat increases more than 9-fold from wild type to 4-54B9 in 15% DMF, while KM decreases by less than a factor of two on LCN-pNB. […] These improvements are obviously the most useful for enzymes intended to be used for transformations in high substrate concentrations.
# as §3
# [8] = substrate p-nitrobenzyl loracarbef nucleus, 0% DMF
# [9] = substrate p-nitrobenzyl loracarbef nucleus, 15% DMF
# [10] = substrate p-nitrophenyl loracarbef nucleus, 0% DMF
# [11] = substrate p-nitrophenyl loracarbef nucleus, 15% DMF
# [12] = substrate p-nitrophenyl loracarbef nucleus, 30% DMF
compound,measurement,setting,value
NC1C(=O)N2C(C(=O)OCc3ccc([N+](=O)[O-])cc3)=C(Cl)CCC12 (centres unmarked) [p-nitrobenzyl loracarbef nucleus],kcat,[1]; [8],18.96
same,kcat,[1]; [9],6.84
same,kcat,[2]; [8],1.64
same,kcat,[2]; [9],0.54
same,kcat,[3]; [8],9.13
same,kcat,[3]; [9],3.02
same,kcat,[4]; [8],4.59
same,kcat,[4]; [9],1.81
same,kcat,[5]; [8],8.51
same,kcat,[5]; [9],1.89
same,kcat,[6]; [8],6.53
same,kcat,[6]; [9],1.62
same,kcat,[7]; [8],1.94
same,kcat,[7]; [9],0.69
NC1C(=O)N2C(C(=O)Oc3ccc([N+](=O)[O-])cc3)=C(Cl)CCC12 (centres unmarked) [p-nitrophenyl loracarbef nucleus],kcat,[1]; [10],1.44
same,kcat,[1]; [11],0.93
same,kcat,[1]; [12],0.141
same,kcat,[2]; [10],0.14
same,kcat,[2]; [11],0.10
same,kcat,[2]; [12],0.024
same,kcat,[3]; [10],0.67
same,kcat,[3]; [11],0.40
same,kcat,[3]; [12],0.094
same,kcat,[4]; [10],0.25
same,kcat,[4]; [11],0.12
same,kcat,[4]; [12],0.023
same,kcat,[5]; [10],0.39
same,kcat,[5]; [11],0.25
same,kcat,[5]; [12],0.067
same,kcat,[6]; [10],0.35
same,kcat,[6]; [11],0.21
same,kcat,[6]; [12],0.044
same,kcat,[7]; [10],0.08
same,kcat,[7]; [11],0.07
same,kcat,[7]; [12],0.021
